This note sets out measurements from publication PMC6472001, “Phenolic Compounds from Humulus lupulus as Natural Antimicrobial Products: New Weapons in the Fight against Methicillin Resistant Staphylococcus aureus, Leishmania mexicana and Trypanosoma brucei Strains” (Molecules, 2019).

Read-outs that look alike come from different tables or passages of the source.

For one data set, the system named is S. aureus T28.1 (MRSA). Description: Broth microdilution MIC. It counts as cell-based, Staphylococcus aureus. On the procedure:
(§1) The protocol employed was inspired by Abedini et al. with some modifications. Products were solubilized in DMSO and serially diluted two-fold in MH medium. A bacterial suspension at 10^5 CFU/mL was added to obtain a final volume of 200 µL. Final phenolic product concentrations in wells ranged from 625 to 2.4 µg/mL (exception for lupulone for which dilutions were continued until 0.3 µg/mL). […] Plates were incubated overnight with stirring (60 rpm) at 37 °C.
For the following experiments, the MRSA strain T28.1, isolated from a pathological sample of osteitis, was used. It was previously characterized by DNA biochips, which allowed highlighting some β-lactamases and the SCC-mec genes confirming the methicillin resistance. Moreover, genes for enzymes and proteins involved in the capsule biosynthesis (capH5, capJ5 and capK5) and several intracellular adhesion proteins implicated in biofilm formation (icaA, icaC and icaD) were present.
Background: In broth dilution the organism is exposed to a series of concentrations in liquid medium.

The test system of another data set is S. aureus 08143 (MSSA). As to the kind of experiment: Broth microdilution MIC. It counts as cell-based, Staphylococcus aureus. The conditions noted are these: S. aureus 08143 (MSSA). The protocol: as §1
Another data set deals with S. aureus T25.10 (MRSA). As to the kind of experiment: Broth microdilution MIC. It counts as cell-based, Staphylococcus aureus. The conditions noted are these: S. aureus T25.10 (MRSA). The protocol:
as §1

In another data set the test system is S. aureus T26A4 (MSSA). As to the kind of experiment: Broth microdilution MIC. Type of data set: cell-based, Staphylococcus aureus. The conditions noted are these: S. aureus T26A4 (MSSA). On the procedure:
as §1

The test system of data set [1] is S. aureus T28.1 biofilm. Description: Anti-biofilm: biofilm formation on artificial surface. It counts as cell-based, Staphylococcus aureus. The protocol: (§2) These experiments were inspired and adapted from Liu et al.. They were performed using a 96-well microplate with a flat bottom.
First, the effect of xanthohumol, desmethylxanthohumol and lupulone was assessed on the biofilm formation: 180 µL of BHI medium containing glucose at 10 mg/mL was added to each well of a 96-well microplate with 10 µL of the product previously solubilized in DMSO and 10 µL of a 10^5 CFU/mL bacterial suspension. The maximum concentration in DMSO was 5%. Final concentrations of purified products were from MIC/4 to 4 × MIC. After 24 h incubation at 37 °C, wells were voided and washed 3 times with phosphate buffered saline solution (PBS, Sigma-Aldrich, Saint-Quentin Fallavier, France). Plates were then dried and 150 µL of crystal violet solution at 20 mg/mL in MeOH (Sigma-Aldrich®, Saint-Quentin Fallavier, France) were added for 15 min. After removing crystal violet, 150 µL of EtOH were added to solubilize crystal violet present in adherent bacteria. The optical density was read at 570 nm.

The test system of data set [2] is S. aureus T28.1 biofilm. As to the kind of experiment: Anti-biofilm: destruction of preformed biofilm on artificial surface. Type of data set: cell-based, Staphylococcus aureus. The protocol: as §2
The effect was also evaluated after the biofilm formation in order to evaluate if the hop phenolic compounds are able to destroy it. A first culture of 24 h at 37 °C with 190 µL of BHI medium and 10 µL of a 10^5 CFU/mL bacterial suspension allowed producing the biofilm. Wells were voided and washed with PBS. The biofilm was then treated with xanthohumol, desmethylxanthohumol or lupulone diluted at 5% in the BHI medium to obtain a final volume of 200 µL. Plates were incubated for 24 h at 37 °C, then voided and colored with crystal violet as above.

Data set [3] relates to Leishmania mexicana mexicana (Lmm). As to the kind of experiment: Antiparasitic activity, broth microdilution. Type of data set: cell-based. The protocol: (§3) Tbb were cultivated in HMI9 medium containing 10% heat-inactivated foetal bovine serum (FBS) (Sigma-Aldrich), […] L-cysteine and […] beta-mercaptoethanol at 37 °C (CO2 5%). Lmm (MHOM/BZ/84/BEL46) were cultivated in SDM-79 medium (Gibco) supplemented with 15% heat-inactivated FBS (Sigma-Aldrich) and 5 mg/L hemin at 28 °C (CO2 5%). Antiparasitic bioassays were performed as described by Bero et al.. Suramin (SUR) and pentamidine (PEN) were used as positive controls respectively. The hops compounds (xanthohumol, desmethylxanthohumol, humulone, lupulone) concentration that inhibits 50% of the cell viability (IC50) was determined using GraphPad Prism, version 5.01 (GraphPad Software, San Diego, CA, USA).

Data set [4] relates to Trypanosoma brucei brucei (Tbb). As to the kind of experiment: Antiparasitic activity, broth microdilution. Type of data set: cell-based. On the procedure:
as §3

For data set [5], the system named is Hep-G2 cells (hepatocellular carcinoma). As to the kind of experiment: Cytotoxicity / antiproliferative effect. Type of data set: cell-based, human. On the procedure:
(§4) Several human cell lines were used for the cytotoxic bioassays: non-cancer lung fibroblasts (WI-38), hepatocellular carcinoma (Hep-G2), osteosarcoma (MG-63) and the mouse monocyte macrophage J774. Cells were seeded into wells of a 96-well microplate in a Gibco™ Dulbecco’s modified eagles medium (DMEM), except for MG-63 which were cultivated in a minimum essential medium (MEM) (ThermoFisher Scientific, Illkirch-Graffenstaden, France). Both media were enriched with 10% FBS (ThermoFisher Scientific, France) and some antibiotics (mixture penicillin/streptomycin 100 UI/mL, Sigma Aldrich). After one or two days at 37 °C (5% of CO2), wells were emptied by suction. Cells were then treated with hops compounds (xanthohumol, desmethylxanthohumol, humulone, lupulone) in DMSO at 0.2% in the culture medium, to obtain a final volume of 100 µL in wells (negative control: 0.2% DMSO). Camptothecin was used as a positive control. After 48 to 72 h exposure, culture medium was replaced by 10% of Alamar blue or 3-(4,5-dimethylthiazol-2-yl)-2,5-diphenyltetrazolium bromide (MTT) in the medium (ThermoFisher Scientific®, Illkirch, France) and plates were incubated the time necessary to the reaction. Results were measured respectively by fluorescence (excitation 530 nm and emission 590 nm) or by optical density at 550 nm. The IC50 of each product was determined using GraphPad Prism (version 5.01).

The subject of data set [6] is WI-38 cells (non-cancer lung fibroblasts). As to the kind of experiment: Cytotoxicity / antiproliferative effect. It counts as cell-based, human. The protocol: as §4
Data set [7] has as its system J774 cells (monocyte macrophage). Description: Cytotoxicity / antiproliferative effect. It counts as cell-based, mouse. The protocol:
as §4

Data set [8] concerns MG-63 cells (osteosarcoma). Description: cells. It counts as cell-based, human. On the procedure:
as §4

Setting [9] is: Staphylococcus aureus, S. aureus T28.1 (MRSA), read-out: MIC.
Setting [10] is: Staphylococcus aureus, S. aureus T28.1 (MRSA), value in parentheses, read-out: MIC.
Where [11] appears, read: Staphylococcus aureus, read-out: MIC.
Where [12] appears, read: Staphylococcus aureus, value in parentheses, read-out: MIC.
Where [13] appears, read: Leishmania mexicana, read-out: IC50 (converted).
[14] abbreviates: Leishmania mexicana, value in parentheses, read-out: IC50 (converted).
[15] abbreviates: Trypanosoma brucei, read-out: IC50 (converted).
Setting [16] is: Trypanosoma brucei, value in parentheses, read-out: IC50 (converted).
Where [17] appears, read: Homo sapiens, HepG2, read-out: IC50 ± SD.
The mark [18] stands for this setting: Homo sapiens, HepG2, value in parentheses, read-out: IC50 (converted).
Where [19] appears, read: Homo sapiens, read-out: IC50 ± SD.
Setting [20] is: Homo sapiens, value in parentheses, read-out: IC50 (converted).
[21] abbreviates: Mus musculus, read-out: IC50 ± SD.
The mark [22] stands for this setting: Mus musculus, value in parentheses, read-out: IC50 (converted).
Where [23] appears, read: Homo sapiens, MG-63, read-out: IC50 ± SD.
Where [24] appears, read: Homo sapiens, MG-63, value in parentheses, read-out: IC50 (converted).
Setting [25] is: value in parentheses, read-out: MIC.
[26] abbreviates: value in parentheses, read-out: IC50 (converted).

In general, MIC refers to the lowest concentration that inhibits growth of the organism. For orientation: IC50 means the point on the concentration scale where inhibition reaches its midpoint. In general, cell viability refers to a read-out of living cells in per cent, often relative to untreated cells. Lower therefore signals more harm to the cells.

As to `CC(C)=CCc1c(O)cc(O)c(C(=O)/C=C/c2ccc(O)cc2)c1O` [DMX, desmethylxanthohumol], the MIC amounted to 39 µg/mL in the data set on S. aureus T28.1 (MRSA) (setting [9]); 115 µM in the data set on S. aureus T28.1 (MRSA) (setting [10]); 39 µg/mL in the data set with S. aureus 08143 (MSSA) (setting [11]); 115 µM with S. aureus 08143 (MSSA) (setting [12]); 19.5 µg/mL with S. aureus T25.10 (MRSA) (setting [11]); 57.3 µM in the data set with S. aureus T25.10 (MRSA) (setting [12]). For the same compound, the MIC with S. aureus T26A4 (MSSA) (setting [11]) was 39 µg/mL; with S. aureus T26A4 (MSSA) (setting [12]), 115 µM. Moreover, the “Biofilm formation on artificial surface” value with S. aureus T28.1 biofilm [1] (sub-inhibitory concentrations) is reported as “significant inhibition”. In the data set with S. aureus T28.1 biofilm [2] (MIC/4), this compound came in with a Biofilm destruction of 81%. The IC50 in data set [3] (setting [13]) was 26.2 ± 1.8 µg/mL; in data set [3] (setting [14]), 77 µM; in data set [4] (setting [15]), 7.7 ± 0.6 µg/mL; in data set [4] (setting [16]), 22.6 µM; in [5] (setting [17]), 22.4 ± 2.9 µg/mL; in data set [5] (setting [18]) it was 65.9 µM. Also, the IC50 is 60.7 ± 2.5 µg/mL in [6] (setting [19]); 178 µM in data set [6] (setting [20]); 9.7 ± 1 µg/mL in data set [7] (setting [21]); 28.5 µM in data set [7] (setting [22]); 39.5 ± 3.3 µg/mL in data set [8] (setting [23]); 116 µM in data set [8] (setting [24]).
Turning to `COc1cc(O)c(CC=C(C)C)c(O)c1C(=O)/C=C/c1ccc(O)cc1` [XN, xanthohumol], the MIC in the data set with S. aureus T28.1 (MRSA) (setting [9]) was determined as 9.8 µg/mL; in the data set on S. aureus T28.1 (MRSA) (setting [10]), 27.7 µM; in the data set on S. aureus 08143 (MSSA) (setting [11]) it was 19.5 µg/mL; in the data set on S. aureus 08143 (MSSA) (setting [12]) it was 55 µM; in the data set on S. aureus T25.10 (MRSA) (setting [11]) it was 9.8 µg/mL; with S. aureus T25.10 (MRSA) (setting [12]) it was 27.7 µM. For the same compound, the MIC with S. aureus T26A4 (MSSA) (setting [11]) was 9.8 µg/mL; with S. aureus T26A4 (MSSA) (setting [12]) it was 27.7 µM. The “Biofilm formation on artificial surface” value with S. aureus T28.1 biofilm [1] (at the MIC) is on record as “totally inhibited”. Also, the “Inhibition of biofilm formation” value in the data set on S. aureus T28.1 biofilm [1] (at the MIC) is approximately 100%. The Biofilm destruction entry with S. aureus T28.1 biofilm [2] (at the MIC and above) is listed as “non-dose-dependent activity”. The concentration for half-maximal inhibition (IC50) in [3] (setting [13]) was 6.1 ± 3.1 µg/mL; in [3] (setting [14]), 17.2 µM; in [4] (setting [15]), 2.4 ± 0.2 µg/mL; in [4] (setting [16]), 6.8 µM; in [5] (setting [17]), 2.5 ± 0.8 µg/mL; in [5] (setting [18]) it was 7.1 µM. Besides, the IC50 was 6.9 ± 0.5 µg/mL in data set [6] (setting [19]); 19.5 µM in data set [6] (setting [20]); 3.4 ± 0.5 µg/mL in data set [7] (setting [21]); 9.6 µM in data set [7] (setting [22]); 10.4 ± 2.6 µg/mL in data set [8] (setting [23]); 29.4 µM in data set [8] (setting [24]).
lupulone: the MIC came out at 1.2 µg/mL in the data set on S. aureus T28.1 (MRSA) (S. aureus T28.1 (MRSA)); 2.9 µM with S. aureus T28.1 (MRSA) (S. aureus T28.1 (MRSA), value in parentheses, read-out: MIC); 1.2 µg/mL against S. aureus T28.1 (MRSA) (strain MRSA T28.1); 1.2 µg/mL in the data set on S. aureus 08143 (MSSA); 2.9 µM in the data set on S. aureus 08143 (MSSA) (setting [25]); 0.6 µg/mL against S. aureus T25.10 (MRSA). In addition, the MIC was 1.45 µM with S. aureus T25.10 (MRSA) (setting [25]), 0.6 µg/mL against S. aureus T26A4 (MSSA) and 1.45 µM with S. aureus T26A4 (MSSA) (setting [25]). The “Biofilm formation on artificial surface” value in the data set with S. aureus T28.1 biofilm [1] (sub-inhibitory concentrations) was “significant inhibition”. This compound displayed a Biofilm destruction in the data set with S. aureus T28.1 biofilm [2] (MIC/4) of 62.8%. The IC50 was 4.7 ± 0.1 µg/mL in [3]; 11.3 µM in [3] (setting [26]); 0.9 ± 0.0 µg/mL in data set [4]; 2.2 µM in [4] (setting [26]); 2.9 µM in [5] (setting [26]); 2.6 µM in [6] (setting [26]). The IC50 is 3.6 µM in data set [7] (setting [26]) and 10.4 µM in data set [8] (MG-63, value in parentheses, read-out: IC50 (converted)). Besides, the “IC50 ± SD” value in [5] was 1.2 ± 0.5 µg/mL; in data set [6], 1.1 ± 0.0 µg/mL; in data set [7] it was 1.5 ± 0.1 µg/mL; in data set [8] (MG-63) it was 4.3 ± 0.4 µg/mL. In data set [8], this compound came in with a cell viability of approximately 100%. This compound also returned a selectivity index in data set [8] (antibacterial activity compared to cytotoxicity against MG-63) of more than 4.
